In ChEMBL document CHEMBL4390641, “Design, synthesis and biological evaluation of amide-pyridine derivatives as novel dual-target (SE, CYP51) antifungal inhibitors” (2019):
Activity calls are given as the source filed them. The rule behind the calls is not given here.

Experiments:
[1] = test system: Candida tropicalis; assay: Antifungal activity against Candida tropicalis ATCC 1369 assessed as inhibition of microbial growth by NCCLS protocol based method; assay type: functional
[2] = test system: Candida albicans; assay: Antifungal activity against Candida albicans ATCC 10231 assessed as inhibition of microbial growth by NCCLS protocol based method; assay type: functional
[3] = test system: Nakaseomyces glabratus; assay: Antifungal activity against Candida glabrata ATCC 0001 assessed as inhibition of microbial growth by NCCLS protocol based method; assay type: functional
[4] = test system: Pichia kudriavzevii; assay: Antifungal activity against Candida krusei ATCC 6258 assessed as inhibition of microbial growth by NCCLS protocol based method; assay type: functional
[5] = test system: Aspergillus fumigatus; assay: Antifungal activity against Aspergillus fumigatus KM8001 assessed as inhibition of microbial growth by NCCLS protocol based method; assay type: functional
[6] = test system: Candida albicans; assay: Antifungal activity against Candida albicans assessed as reduction in cell division at 25 to 250 nM/mL by polarizing microscopy; assay type: functional, organism-based
[7] = test system: Candida albicans; assay: Antifungal activity against Candida albicans assessed as inhibition of microbial growth at 25 to 250 nM/mL by polarizing microscopy; assay type: functional, organism-based
[8] = test system: Candida albicans; assay: Antifungal activity against Candida albicans assessed as inhibition of microbial growth at 2.5 nM/mL by polarizing microscopy; assay type: functional, organism-based
[9] = test system: Candida albicans; assay: Antifungal activity against Candida albicans assessed as induction of cell fracture at 2.5 nM/mL by polarizing microscopy; assay type: functional, organism-based
[10] = test system: Candida albicans; assay: Antifungal activity against Candida albicans assessed as induction of microbial cell killing at 25 to 250 nM/mL by polarizing microscopy; assay type: functional, organism-based
[11] = test system: Candida albicans; assay: Antifungal activity against fluconazole-resistant Candida albicans 100 assessed as inhibition of microbial growth by NCCLS protocol based method; assay type: functional
[12] = test system: Candida albicans; assay: Antifungal activity against Candida albicans assessed as reduction in proportion of microbes at cell division phase at 25 to 250 nM/mL by polarizing microscopy; assay type: functional, organism-based
[13] = test system: Candida albicans; assay: Antifungal activity against Candida albicans assessed as reduction in cell volume at 25 to 250 nM/mL by polarizing microscopy; assay type: functional, organism-based
[14] = test system: Candida albicans; assay: Antifungal activity against fluconazole-resistant Candida albicans 103 assessed as inhibition of microbial growth by NCCLS protocol based method; assay type: functional
[15] = test system: Heme; assay: Binding affinity to heme by UV-Visible spectroscopy
[16] = test system: Candida albicans; assay: Inhibition of SE/CYP51 in Candida albicans ATCC SC5314 assessed as effect on sterol composition by measuring ergosterol level at 16 ug/ml incubated for 90 mins by HPLC analysis (reference value: 64.2%); parameters: scale not given: the % may be the effect or the level left
[17] = test system: Candida albicans; assay: Inhibition of SE/CYP51 in Candida albicans ATCC SC5314 assessed as effect on sterol composition by measuring Lanosterol level at 16 ug/ml incubated for 90 mins by HPLC analysis (reference value: 10.99%); parameters: scale not given: the % may be the effect or the level left
[18] = test system: Candida albicans; assay: Inhibition of SE/CYP51 in Candida albicans ATCC SC5314 assessed as effect on sterol composition by measuring Eburicol level at 16 ug/ml incubated for 90 mins by HPLC analysis (reference value: 8.3%); parameters: scale not given: the % may be the effect or the level left
[19] = test system: Heme; assay: Binding affinity to heme by fluorescence spectrum analysis
[20] = test system: Candida albicans; assay: Inhibition of SE/CYP51 in Candida albicans ATCC SC5314 assessed as effect on sterol composition by measuring Squalene level at 16 ug/ml incubated for 90 mins by HPLC analysis; parameters: scale not given: the % may be the effect or the level left
[21] = test system: Candida albicans; assay: Inhibition of SE/CYP51 in Candida albicans ATCC SC5314 assessed as effect on sterol composition by measuring Unidentified sterol level at 16 ug/ml incubated for 90 mins by HPLC analysis (reference value: 16.51%); parameters: scale not given: the % may be the effect or the level left

Row | SMILES | MIC [1] | MIC [2] | MIC [3] | MIC [4] | MIC [5] | other results
1 | O=C(N[C@H](C(=O)NCc1ccncc1)c1ccccc1)c1ccc2ccccc2c1 | > 16 µg/mL | 4 µg/mL | 8 µg/mL | 4 µg/mL | > 16 µg/mL | 
2 | O=C(CNC(=O)c1ccc2ccccc2n1)NCc1ccncc1 | 0.125 µg/mL | 0.25 µg/mL | 0.5 µg/mL | 0.5 µg/mL | 2 µg/mL | Activity [6]: Active; growth inhibition (GI) [7]: Active; growth inhibition (GI) [8]: Active; Activity [9]: Active; Activity [10]: Active; MIC [11]: 2 µg/mL; Activity [12]: Active; Activity [13]: Active; MIC [14]: 1 µg/mL
3 | O=C(N[C@H](C(=O)NCc1ccncc1)c1ccccc1)c1ccc2ccccc2n1 | > 16 µg/mL | 2 µg/mL | > 16 µg/mL | 4 µg/mL | > 16 µg/mL | 
4 | CC(C)[C@H](NC(=O)c1ccc2ccccc2n1)C(=O)NCc1cccnc1 | 2 µg/mL | 0.5 µg/mL | 0.5 µg/mL | 1 µg/mL | 4 µg/mL | 
5 | O=C(CNC(=O)c1ccc2ccccc2c1)NCc1ccncc1 | 0.5 µg/mL | 0.25 µg/mL | 0.25 µg/mL | 1 µg/mL | 2 µg/mL | 
6 | CC(C)[C@H](NC(=O)c1ccc2ccccc2c1)C(=O)NCc1ccncc1 | 2 µg/mL | 2 µg/mL | 0.5 µg/mL | 0.5 µg/mL | 8 µg/mL | 
7 | OC(Cn1cncn1)(Cn1cncn1)c1ccc(F)cc1F [FLUCONAZOLE] | 2 µg/mL | 0.5 µg/mL | 1 µg/mL | 0.5 µg/mL | > 16 µg/mL | Activity [6]: Active; Activity [15]: Active; Activity [16]: 11.3%; growth inhibition (GI) [7]: Active; growth inhibition (GI) [8]: inactive; Activity [10]: Active; Activity [17]: 49.2%; MIC [11]: > 16 µg/mL; Activity [18]: 39.5%; Activity [12]: Active; Activity [13]: Active; MIC [14]: > 16 µg/mL
8 | C[C@H](NC(=O)c1ccc2ccccc2c1)C(=O)NCc1cccnc1 | 2 µg/mL | 0.5 µg/mL | 1 µg/mL | 0.5 µg/mL | 4 µg/mL | 
9 | C[C@H](NC(=O)c1ccc2ccccc2n1)C(=O)NCc1cccnc1 | 0.5 µg/mL | 1 µg/mL | 0.25 µg/mL | 2 µg/mL | 8 µg/mL | 
10 | C[C@H](NC(=O)c1ccc2ccccc2n1)C(=O)NCc1ccncc1 | 0.25 µg/mL | 0.125 µg/mL | 0.125 µg/mL | 0.25 µg/mL | 1 µg/mL | Activity [6]: Active; Activity [15]: Active; Activity [16]: 9.02%; Activity [19]: Dose-dependent effect; growth inhibition (GI) [7]: Active; growth inhibition (GI) [8]: Active; Activity [9]: Active; Activity [10]: Active; Activity [20]: 13.4%; Activity [17]: 50.1%; MIC [11]: 0.5 µg/mL; Activity [18]: 27.4%; Activity [12]: Active; Activity [13]: Active; MIC [14]: 2 µg/mL
11 | CN(C/C=C/C#CC(C)(C)C)Cc1cccc2ccccc12 [TERBINAFINE] | 2 µg/mL | 0.25 µg/mL | 1 µg/mL | 0.5 µg/mL | 2 µg/mL | Activity [6]: Active; Activity [16]: 10.6%; growth inhibition (GI) [7]: Active; growth inhibition (GI) [8]: inactive; Activity [10]: Active; Activity [20]: 37.8%; Activity [17]: 22.4%; MIC [11]: 8 µg/mL; Activity [18]: 21.9%; Activity [12]: Active; Activity [13]: Active; Activity [21]: 7.27%; MIC [14]: 4 µg/mL
12 | O=C(N[C@H](C(=O)NCc1cccnc1)c1ccccc1)c1ccc2ccccc2n1 | 2 µg/mL | 8 µg/mL | 4 µg/mL | > 16 µg/mL | > 16 µg/mL | 
13 | CC(C)[C@H](NC(=O)c1ccc2ccccc2c1)C(=O)NCc1cccnc1 | 2 µg/mL | 8 µg/mL | 2 µg/mL | 4 µg/mL | > 16 µg/mL | 
14 | O=C(CNC(=O)c1ccc2ccccc2c1)NCc1cccnc1 | 0.5 µg/mL | 1 µg/mL | 4 µg/mL | 2 µg/mL | > 16 µg/mL | 
15 | O=C(CNC(=O)c1ccc2ccccc2n1)NCc1cccnc1 | 1 µg/mL | 0.5 µg/mL | 2 µg/mL | 0.5 µg/mL | 2 µg/mL | 
16 | O=C(N[C@H](C(=O)NCc1cccnc1)c1ccccc1)c1ccc2ccccc2c1 | 8 µg/mL | > 16 µg/mL | > 16 µg/mL | 8 µg/mL | > 16 µg/mL | 
17 | C[C@H](NC(=O)c1ccc2ccccc2c1)C(=O)NCc1ccncc1 | 0.25 µg/mL | 0.25 µg/mL | 1 µg/mL | 0.5 µg/mL | 2 µg/mL | 
18 | CC(C)[C@H](NC(=O)c1ccc2ccccc2n1)C(=O)NCc1ccncc1 | 4 µg/mL | 0.5 µg/mL | 2 µg/mL | 0.5 µg/mL | > 16 µg/mL | 
